Source: a melting point compilation (Tetko et al.; mined from patent text by program, amines drawn as free bases though some values may be those of a salt)

Row | melting point | SMILES
1 | > 250 °C | O=[N+]([O-])c1ccc(-c2cc3c(Nc4cccc(Cl)c4)ncnc3[nH]2)cc1
2 | 135 to 136 °C | C=C1C(=O)c2ccccc2OC1c1ccc([N+](=O)[O-])cc1 (stereo not drawn)
3 | 170 to 171 °C | CCCn1ccc2c(NCCc3ccc(O)cc3)cccc2c1=O
4 | 170 to 171 °C | COc1ccc(C2=NN(C3CCSCC3)C(=O)[C@H]3CC=CC[C@@H]23)cc1Cl (relative stereo)
5 | 140 °C | CC(C(=O)O)=C(NC(=O)C(F)(F)F)c1ccccc1
6 | 147 to 148 °C | O=C(c1ccc(Cl)cc1)c1cccc(Cl)c1[N+](=O)[O-]
7 | 241 to 243 °C | CC#Cc1cn(C2OC(CO)C(O)C2O)c(=O)nc1N (stereo not drawn)
8 | 30 to 31 °C | CC(C)OC(=O)CCc1nc(-c2ccc(Cl)cc2)co1
9 | 94 to 96 °C | CC(C)(C)OC(=O)N1CCC(c2ccc(COc3cccc([N+](=O)[O-])c3)nc2)CC1
10 | 133 to 134 °C | CCOC(=O)CCN1CCN(C2=Nc3ccccc3Cc3ccccc32)CC1
11 | 252 to 253 °C | O=C(O)c1ccc(C(=O)Nc2cc3c4c(c2)CCCC4CCC3)nc1
12 | 136 °C | CCc1nnc(-c2ccc(OC)cc2)n1-c1ccc(N(C)C)cc1
13 | 130 to 132 °C | CCCCc1nc2c(N)nc(C)c(C)c2n1CCOc1ccccc1
14 | 250 to 252 °C | Cc1nc(O)c(C)c(NCCc2ccncc2)n1
15 | 78 to 81 °C | COc1cc2[nH]c(=O)nc(C)c2c(C)c1OC
16 | 250 to 253 °C | CCN1CCN(c2cc(-c3ccc(O)cc3)c3c(n2)CCCCCC3)CC1
17 | 136 to 138 °C | COC(=O)C(Oc1cc(OCc2ccnnc2)ccc1C#N)c1ccccc1Cl (racemic)
18 | 103 to 105 °C | CON=CCOc1ccccc1S(N)(=O)=O
19 | 222 to 224 °C | Oc1ccc(-c2nc(-c3ccc(Br)cc3)nc(-c3ccc(O)cc3O)n2)c(O)c1
20 | 109 to 110 °C | CC1(C(=O)Nc2ccc(-n3nc(C(F)(F)F)cc3C(F)(F)F)cc2)CC1
21 | 172 °C | COC(=O)c1ccc(COCn2cc(Cl)cnc2=O)cc1
22 | 154 to 158 °C | CCCCc1oc2ccccc2c1C(=O)NCc1ccc2c(-c3ccc(Cl)cc3)c(OCC#N)ccc2c1
23 | 162 to 164 °C | Cc1nc(N2CCN(Cc3ccc(F)cc3)C2=O)sc1C(=O)N(C)C
24 | 159 to 160 °C | CCCCCCCCCCCCNc1ncnc2nc[nH]c12

Row | melting point | SMILES
25 | 143 to 144 °C | Cc1cc2ncnn2nc1OCCC(C)(C)CCS(N)(=O)=O
26 | 166 to 167 °C | O=C1c2ccccc2CN1c1ccc(OCCN2CCN(c3nsc4ccccc34)CC2)cc1
27 | 209 to 211 °C | COc1ccc(NC(=O)Nc2ccc(Cl)c(Cl)c2)cc1NC(=S)Nc1cccc(C(=O)O)c1
28 | 195 °C | CCCC1=C(C#N)C(c2cccc3nsnc23)c2c[nH]nc2N1 (stereo not drawn)
29 | 155 to 157 °C | COc1ccc(-c2nc(-c3ccc(Br)cc3)sc2-c2ccc(OC)cc2)cc1
30 | 194 to 196 °C | CC(C)(O)c1cc2cc(OCC(=O)O)c(Cl)c(Cl)c2s1
31 | 149 to 150 °C | C=Cc1cc(OS(=O)(=O)c2ccc(C)cc2)c(OC)cc1C#N
32 | 205 to 210 °C | C[C@H](c1ccccc1)n1c(=O)[nH]c2cc(Cl)cc(Cl)c2c1=O
33 | 186 to 187 °C | Cn1ncnc1COc1nn2c(-c3ccccc3F)nncc2c1-c1ccccn1
34 | 77 °C | CCOCCNc1nc(Cl)nc(Cl)n1
35 | 153 to 156 °C | Cc1csc(-c2ccc3nnn(Cc4ccc5ncccc5c4)c3n2)c1
36 | 132 °C | CCCOc1ccc(-c2c(C(=O)OC)c(C(=O)OC)c(O)c3cc(OC)c(OC)c(OC)c23)cc1OCCC
37 | 110 °C | CC(C)(C)NS(=O)(=O)c1cncc(Br)c1
38 | 81 to 82 °C | COC(=O)C(C(=O)OC)=C(C)N
39 | 164 °C | CCOC(=O)c1cc(-c2cn(Cc3ccccc3C#N)c(=O)n2-c2ccc(F)cc2)ccn1
40 | > 290 °C | CN1CCc2c(O)c(F)cc3c(=O)c(C(=O)O)cn1c23
41 | 247 to 250 °C | CCCn1c(=O)c2[nH]c(-c3ccc(C(=O)N(CC)CC)o3)nc2n(CCC)c1=O
42 | 148 to 149 °C | Cn1nc(-c2cccnc2)nc1-c1cccnc1
43 | 137 to 140 °C | COC[C@H]1CCCN1C(=O)c1cc(-c2ccccc2)c(=O)n2ccc3ccc(Cl)cc3c12
44 | 196 °C | CC(=O)Nc1cccc(-n2nc(C#N)c(=O)n(Cc3ccc(Cl)cc3)c2=O)c1
45 | 222 to 225 °C | COc1ccc(C(=O)Nc2c(Cl)cncc2Cl)c2c3ccccc3n(Cc3ccc(F)cc3)c12
46 | 75 to 79 °C | CCCCCCCCCCCCn1nnc(CC(=O)Nc2c(C(C)C)cccc2C(C)C)n1
47 | 115 to 117 °C | CNc1cc(C(C)=O)ccc1OCCCCl
48 | 109 to 111 °C | O=C(NCc1cccs1)c1ccccc1C(c1ccc(O)cc1)c1ccc(O)cc1

Row | melting point | SMILES
49 | 156 to 159 °C | O=C(C1CSC(c2cccnc2)N1)N1CCN(c2ncccn2)CC1 (stereo not drawn)
50 | 160 to 163 °C | Cc1cc(C(=O)O)c(Cl)c([N+](=O)[O-])c1C
51 | 228 to 229 °C | CCOC(=O)c1c(C)cc2c(c1C)c(=O)n(-c1ccccc1Cl)c(=O)n2CC(=O)N(CC)CC
52 | 134 to 136 °C | C#CCOc1nnc(Cl)c2ccccc12
53 | 182 to 185 °C | O=C1NCCc2[nH]c3c(OCc4ccccc4)cccc3c21
54 | 125 to 127 °C | O=C(O)C(Cc1ccccc1)Oc1ccc2cc(-c3cnc(-c4cn(Cc5ccccc5)c5ccccc45)o3)ccc2c1 (stereo not drawn)
55 | 74 to 76 °C | C#CCn1c2c(c3ccccc31)CCCC2
56 | 186 to 188 °C | CC(=O)Nc1nc(CCc2ccc(NC(=O)CNC(=O)OC(C)(C)C)cc2)c(Cc2ccc(S(C)(=O)=O)cc2)s1
57 | 188 °C | Cc1cc2c(cc1C(F)(F)F)NC(=O)CC(c1cccc(-c3ccnc(CN(C)CC(C)C)c3)c1)=N2
58 | 75 to 80 °C | CC1(c2ccc(C(O)C(C)(C)C)cc2)OCCO1 (stereo not drawn)
59 | 245 °C | O=[N+]([O-])c1ccc2ncccc2c1O
60 | 273 to 275 °C | Cc1ccc(NC(=O)NCc2ccc3c(c2)CN(C2CCC(=O)NC2=O)C3=O)cc1O (stereo not drawn)
61 | 88 to 89 °C | CON=C(C)C(=NOCc1ccccc1)C(=O)O
62 | 225 to 226 °C | Cc1ccccc1-c1c(NC(=O)Nc2ccc(F)cc2F)cnc2sc(Cl)cc12
63 | 203 °C | CC(=O)Nc1c([N+](=O)[O-])cc([N+](=O)[O-])c2c1CCCC2
64 | 92 to 93 °C | Cc1ccc(CC(=S)N[C@@H](Cc2ccccc2)C(=O)O)cc1
65 | 214 to 216 °C | Cc1c(N2C[C@@H](N)[C@@H](C(F)F)C2)c(F)cc2c(=O)c(C(=O)O)cn([C@@H]3C[C@@H]3F)c12
66 | 265 to 267 °C | CN1CCN(C2=Nc3ccccc3S(=O)(=O)N2)CC1
67 | 154 to 155 °C | CCn1c(CCl)nc2c([N+](=O)[O-])cc(Br)cc21
68 | 185 °C | OCC1Cc2sccc2CN1C(=S)Nc1cccc2cnccc12 (racemic)
69 | 262 to 263 °C | COc1cc2cc(C(=O)OC(C)(C)C)c(N)cc2cc1O
70 | 112 to 114 °C | CC[C@H](C)[C@H](Nc1nc(OC)ns1)C(=O)N1CCC[C@H]1C(=O)O
71 | 51 °C | CCCCCCCCOc1ccc(-c2ccc(C(=O)O[C@@H](C)C(=O)OCCCC)cc2)cc1
72 | 96 to 98 °C | COC(=O)c1c(C)nc(C)c(C(=O)Cl)c1-c1ccccc1[N+](=O)[O-]

Row | melting point | SMILES
73 | 334 °C | COc1cc2[nH]nc(C(=O)NN=Cc3ccc([N+](=O)[O-])o3)c2cc1OC
74 | 108 to 110 °C | Cc1ccc(C(=O)Nc2cc(F)ccc2F)cc1
75 | 46 to 49 °C | Cc1cc(C)cc(COC[C@@H](NC(=O)OC(C)(C)C)c2ccccc2)c1
76 | 181 °C | O=C1NCCNC1c1cn(Cc2ccccc2Cl)c2ccccc12 (stereo not drawn)
77 | 65 to 66 °C | CCCCCCCC(SC)S(=O)(=O)c1ccc(C)cc1 (stereo not drawn)
78 | 120 to 121 °C | CCOC(=O)c1cnoc1-c1cc(Cl)c(Cl)s1
79 | 82 to 83 °C | Cc1cccc(C)c1NCC(=O)N1CCCO1
80 | 206 °C | CCOC(=O)c1c(Cl)c2sccc2[nH]c1=O
81 | 204 to 205 °C | Cc1ccc(N2CCN(Cc3c[nH]c4ncccc34)CC2)nc1
82 | 162 to 165 °C | O=C(O)C(Cc1ccsc1)N1C(=O)c2ccccc2C1=O (stereo not drawn)
83 | 102 to 105 °C | COc1ccc(C(C#N)=Cc2ccc(OC)c(OC3CCCC3)c2)cc1
84 | 201 °C | O=S(=O)(NCCc1ccccc1)c1cccc(-c2cc(-c3nc(-c4ccc(C(F)(F)F)cc4)cc(C(F)(F)F)n3)ccn2)c1
85 | 111 to 112 °C | CC(=O)OCC1=C(C(=O)OC(C)(C)C)N2C(=O)C(N)C2SC1 (stereo not drawn)
86 | 83 °C | N#Cc1ccc(Cc2c[nH]nn2)cc1
87 | 111 to 112 °C | Cc1ccc(C2CCN(C(=O)CCC(=O)c3ccc4c(c3)CCN(C)CC4)CC2)cc1
88 | 140 to 141 °C | CCOC(=O)c1c(NC2CCCCC2)c(C#N)c(=O)n2ccccc12
89 | 132 to 135 °C | CS(=O)(=O)c1ccc(-c2nn(CCc3ccccc3)c(C(F)(F)F)c2-c2ccc(F)cc2)cc1
90 | 77 to 78 °C | CC(C)C(NC(=O)c1ccc(C(=O)NCC(=O)OCc2ccccc2)cc1)C(=O)N1CCCC1C(=O)NC(C(=O)C(F)(F)F)C(C)C (mixture of isomers)
91 | 156 to 157 °C | CC(C)Oc1ccc(CCCCOc2cc(CCC(=O)O)n(C)n2)c(Oc2ncc(C(F)(F)F)cc2Cl)c1
92 | 130 to 132 °C | CCOC(=O)C1=C(COCc2nnn(CC(N)=O)n2)NC(C)=C(C(=O)OC)C1c1cccc(Cl)c1Cl (stereo not drawn)
93 | 100 to 105 °C | c1ccc(CO[C@@H]2CCC[C@H]2Nc2nc(N3CCN(c4ccccc4)CC3)nc3c2SCC3)cc1
94 | 127 to 130 °C | Cc1ccccc1-c1nc(COc2cccc3cc(NS(=O)(=O)C(F)(F)F)ccc23)co1
95 | 118 to 120 °C | CCOC(=O)c1c(N2CCCC2)c2cccnc2n(C)c1=O
96 | 208 to 209 °C | CN(C)c1nc2sc3c(NCc4cccnc4)ncnc3c2c2c1CCC(C)(C)C2

Row | SMILES | melting point
97 | CC(C)(C)OC(=O)NCC(CC(=O)O)c1ccc(Cl)cc1 (stereo not drawn) | 139 to 141 °C
98 | Cn1c(=O)oc2cc(CCN3CCN(c4ccc(F)cc4)CC3)ccc21 | 161 to 164 °C
